Experiments:
[1] = molecular target: T1, wt human NUAK1, full length (Homo sapiens, UniProt O60285); assay: TR-FRET LanthaScreen Eu Kinase Binding Assay, NUAK1; details: 5 nM Kinase Tracer 236; read-out: IC50, inhibitory activity toward NUAK1
T1 construct: 8 nM wt human NUAK1, full length (ThermoFisher/USA); purchased ThermoFisher/USA
T1 sequence (O60285 1-661): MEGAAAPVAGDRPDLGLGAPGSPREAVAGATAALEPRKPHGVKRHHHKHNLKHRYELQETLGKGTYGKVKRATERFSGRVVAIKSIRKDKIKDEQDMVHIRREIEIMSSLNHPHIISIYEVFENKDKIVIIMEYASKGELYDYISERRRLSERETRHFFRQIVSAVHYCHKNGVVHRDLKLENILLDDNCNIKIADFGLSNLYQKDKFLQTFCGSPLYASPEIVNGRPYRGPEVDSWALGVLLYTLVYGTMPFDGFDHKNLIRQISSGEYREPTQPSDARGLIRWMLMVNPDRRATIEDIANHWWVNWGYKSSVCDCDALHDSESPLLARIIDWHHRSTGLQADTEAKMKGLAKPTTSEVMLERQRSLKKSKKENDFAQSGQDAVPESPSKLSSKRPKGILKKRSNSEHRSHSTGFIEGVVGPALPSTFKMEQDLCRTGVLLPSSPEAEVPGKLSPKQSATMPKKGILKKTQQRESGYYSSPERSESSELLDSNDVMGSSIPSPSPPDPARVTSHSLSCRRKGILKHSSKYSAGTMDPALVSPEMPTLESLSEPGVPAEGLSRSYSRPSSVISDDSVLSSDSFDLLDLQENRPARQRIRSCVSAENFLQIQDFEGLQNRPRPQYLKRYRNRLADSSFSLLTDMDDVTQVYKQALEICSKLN
Outline: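 TR-FRET tracer-displacement binding with 8 nM full-length wild-type human NUAK1, 2 nM Eu-anti-His antibody and 5 nM Kinase Tracer 236 in 1× Kinase Buffer A (final). Compound, kinase/antibody and tracer incubated 1 h at room temperature; emission ratios analysed per kit protocol.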

[2] = molecular target: T2, wt human TYK2, catalytic site (Homo sapiens, UniProt P29597); assay: HTRF KinEASE assay, TYK2; type: biochemical; details: 1 μM ATP; read-out: IC50, inhibitory activity toward TYK2
T2 construct: 2 nM wt human TYK2, catalytic site (SignalChem/CAN); purchased SignalChem/CAN
T2 sequence (P29597 897-1176 limits assumed): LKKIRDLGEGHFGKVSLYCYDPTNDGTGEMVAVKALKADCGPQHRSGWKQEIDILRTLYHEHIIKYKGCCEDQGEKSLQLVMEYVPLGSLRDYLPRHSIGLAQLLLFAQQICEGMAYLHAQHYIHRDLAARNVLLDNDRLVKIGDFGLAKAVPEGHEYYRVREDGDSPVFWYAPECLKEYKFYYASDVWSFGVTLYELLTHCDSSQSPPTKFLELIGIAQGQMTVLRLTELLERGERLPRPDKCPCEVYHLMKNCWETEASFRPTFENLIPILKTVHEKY
Outline: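 2 nM wt human TYK2 catalytic domain with 1 μM biotinylated TK substrate and 1 μM ATP in 1× kinase buffer was incubated ≥30 min at room temperature. Antibody and streptavidin-XL665 were added, and HTRF emission ratios were read after 60 min.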

SMILES	IC50 [1] [nM]	IC50 [2] [nM]
Fc1cc2c(cc1-c1ccccc1)N=C(c1c(F)cccc1F)Nc1c[nH]nc1-2 [Compound 231, 5-(2,6-difluorophenyl)-9-fluoro-8-phenyl-2,4-dihydrobenzo[d]pyrazolo[3,4-f][1,3]diazepine]	10 to 100	10 to 100
Fc1ccccc1-c1ccc2c(c1)N=C(c1c(F)cccc1F)Nc1c[nH]nc1-2 [Compound 233, 5-(2,6-difluorophenyl)-8-(2-fluorophenyl)-2,4-dihydrobenzo[d]pyrazolo[3,4-f][1,3]diazepine]	10 to 100	10 to 100
Fc1ccccc1-c1ccc2c(c1)N=C(c1c(F)cccc1Cl)Nc1c[nH]nc1-2 [Compound 234, 5-(2-chloro-6-fluorophenyl)-8-(2-fluorophenyl)-2,4-dihydrobenzo[d]pyrazolo[3,4-f][1,3]diazepine]	< 10	10 to 100
CC(C)Oc1cc2c(cc1F)-c1n[nH]cc1N=C(c1c(F)cccc1Cl)N2 [Compound 235, 5-(2-chloro-6-fluorophenyl)-9-fluoro-8-isopropoxy-2,6-dihydrobenzo[d]pyrazolo[3,4-f][1,3]diazepine]	10 to 100	10 to 100
Fc1ccccc1-c1ccc2c(c1)N=C(c1c(Cl)cccc1Cl)Nc1c[nH]nc1-2 [Compound 236, 5-(2,6-dichlorophenyl)-8-(2-fluorophenyl)-2,4-dihydrobenzo[d]pyrazolo[3,4-f][1,3]diazepine]	100 to 1000	< 10
Fc1ccc(-c2ccc3c(c2)N=C(c2c(F)cccc2F)Nc2c[nH]nc2-3)cc1 [Compound 237, 5-(2,6-difluorophenyl)-8-(4-fluorophenyl)-2,4-dihydrobenzo[d]pyrazolo[3,4-f][1,3]diazepine]	< 10	10 to 100
Fc1ccc(-c2ccc3c(c2)N=C(c2c(F)cccc2Cl)Nc2c[nH]nc2-3)cc1 [Compound 238, 5-(2-chloro-6-fluorophenyl)-8-(4-fluorophenyl)-2,4-dihydrobenzo[d]pyrazolo[3,4-f][1,3]diazepine]	10 to 100	10 to 100
CCC(C)Oc1cc2c(cc1F)-c1n[nH]cc1N=C(c1c(F)cccc1Cl)N2 (stereo not shown) [Compound 239, 8-(sec-butoxy)-5-(2-chloro-6-fluorophenyl)-9-fluoro-2,6-dihydrobenzo[d]pyrazolo[3,4-f][1,3]diazepine]	100 to 1000	10 to 100
Fc1cccc(-c2ccc3c(c2)N=C(c2c(F)cccc2F)Nc2c[nH]nc2-3)c1 [Compound 240, 5-(2,6-difluorophenyl)-8-(3-fluorophenyl)-2,4-dihydrobenzo[d]pyrazolo[3,4-f][1,3]diazepine]	10 to 100	10 to 100
Fc1cccc(-c2ccc3c(c2)N=C(c2c(F)cccc2Cl)Nc2c[nH]nc2-3)c1 [Compound 241, 5-(2-chloro-6-fluorophenyl)-8-(3-fluorophenyl)-2,4-dihydrobenzo[d]pyrazolo[3,4-f][1,3]diazepine]	10 to 100	< 10
Fc1ccc(-c2ccc3c(c2)N=C(c2c(Cl)cccc2Cl)Nc2c[nH]nc2-3)cc1 [Compound 242, 5-(2,6-dichlorophenyl)-8-(4-fluorophenyl)-2,4-dihydrobenzo[d]pyrazolo[3,4-f][1,3]diazepine]	10 to 100	< 10
Fc1cccc(-c2ccc3c(c2)N=C(c2c(Cl)cccc2Cl)Nc2c[nH]nc2-3)c1 [Compound 243, 5-(2,6-dichlorophenyl)-8-(3-fluorophenyl)-2,4-dihydrobenzo[d]pyrazolo[3,4-f][1,3]diazepine]	100 to 1000	10 to 100
Fc1cc2c(cc1OC1CCCC1)N=C(c1c(F)cccc1Cl)Nc1c[nH]nc1-2 [Compound 245, 5-(2-chloro-6-fluorophenyl)-8-(cyclopentyloxy)-9-fluoro-2,4-dihydrobenzo[d]pyrazolo[3,4-f][1,3]diazepine]	100 to 1000	10 to 100
CC[C@H](C)Oc1cc2c(cc1F)-c1n[nH]cc1N=C(c1c(F)cccc1Cl)N2 [Compound 247, (S)-8-(sec-butoxy)-5-(2-chloro-6-fluorophenyl)-9-fluoro-2,6-dihydrobenzo[d]pyrazolo[3,4-f][1,3]diazepine]	10 to 100	10 to 100

— patent US20220380374A1, “1,4-DIHYDROBENZO[D]PYRAZOLO[3,4-F][1,3]DIAZEPINE DERIVATIVES AND RELATED COMPOUNDS AS LRRK2, NUAK1 AND/OR TYK2 KINASE MODULATORS FOR THE TREATMENT OF E.G. AUTOIMMUNE DISEASE” (Origenis GMBH, priority 2019, published 2022)
